Test results as given in US20090181948A1, “DIAMINE DERIVATIVE” (KYOWA HAKKO KOGYO CO., LTD., priority 2005, published 2009).

Target: T1, histamine H3 receptor (Rattus norvegicus, UniProt Q9QYN8)
T1 construct: from tissue; host or cells: rat striatum (Sprague-Dawley, male, 6 weeks), membrane homogenate
Test: Histamine H3 receptor binding assay ([3H]-Nα-methylhistamine binding to rat striatum homogenate)
Conditions: 1 μmol/L test compound; [3H]-Nα-methylhistamine 1 nmol/L; striata of Sprague-Dawley male rats, 25° C., 1 hour; read-out: Inhibition ratio of [3H]-Nα-methylhistamine binding
Method: To the striata of Sprague-Dawley male rats (6 weeks of age), a 10-fold volume of lysis buffer {50 mmol/L [[…] (Tris)]/HCl (pH 7.4), 5 mmol/L ethylenediaminetetraacetic acid (EDTA), a protease inhibitor mixture [1 mg/mL phenylmethylsulfonyl fluoride (PMSF), 1 μg/mL pepstatin A, 1 μg/mL leupeptin, 1 μg/mL chymostatin]} was added and the striata were homogenized. The resulting homogenate was centrifuged (30,000×g, 4° C., 30 min), and the obtained precipitate was resuspended in a 10-fold volume of lysis buffer, followed by centrifugation under the same condition. To the obtained precipitate, a 3-fold volume of lysis buffer was added to suspend the precipitate, and the resulting tissue homogenate was used for a test.
A test compound was dissolved in an assay buffer [50 mmol/L Tris/HCl (pH 7.4), 5 mmol/L EDTA], and [^3H]-N^α-methylhistamine (1 nmol/L) and the tissue homogenate (20 μg, in terms of protein amount) were added thereto, and then, the mixture was incubated at 25° C. for 1 hour. Then, the reaction was terminated by rapid suction filtration on a glass filter [GF/B: Whatman, previously soaked in 0.3 w/v % polyethylenimine for about 30 min]. Then, the glass filter was washed three times with 3 mL of assay buffer. This glass filter was transferred into a scintillation vial and dried at 60° C. for 30 minutes. Then, 0.5 mL of Ultimagold (Perkin Elmer) was added thereto, and the radioactivity (binding amount of [^3H]-N^α-methylhistamine) was measured using a liquid scintillation counter. The obtained value was used as a binding amount in the presence of the test compound. The same procedure as described above was carried out in the absence of the test compound, and the binding amount of [^3H]-N^α-methylhistamine obtained at this time was used as a binding amount in the absence of the test compound. Further, the binding amount of [^3H]-N^α-methylhistamine obtained in the presence of 10 μmol/L thioperamide was used as a non-specific binding amount. An inhibitory action of [^3H]-N^α-methylhistamine binding was represented by an inhibition ratio in terms of 1 μmol/L of the test compound calculated by the following Equation (1).
Inhibition ratio(%)={1−[(Binding amount in the presence of test compound)−(Non-specific binding amount)]/[(Binding amount in the absence of test compound)−(Non-specific binding amount)]}×100 (1)

T1 sequence (Q9QYN8 whole entry): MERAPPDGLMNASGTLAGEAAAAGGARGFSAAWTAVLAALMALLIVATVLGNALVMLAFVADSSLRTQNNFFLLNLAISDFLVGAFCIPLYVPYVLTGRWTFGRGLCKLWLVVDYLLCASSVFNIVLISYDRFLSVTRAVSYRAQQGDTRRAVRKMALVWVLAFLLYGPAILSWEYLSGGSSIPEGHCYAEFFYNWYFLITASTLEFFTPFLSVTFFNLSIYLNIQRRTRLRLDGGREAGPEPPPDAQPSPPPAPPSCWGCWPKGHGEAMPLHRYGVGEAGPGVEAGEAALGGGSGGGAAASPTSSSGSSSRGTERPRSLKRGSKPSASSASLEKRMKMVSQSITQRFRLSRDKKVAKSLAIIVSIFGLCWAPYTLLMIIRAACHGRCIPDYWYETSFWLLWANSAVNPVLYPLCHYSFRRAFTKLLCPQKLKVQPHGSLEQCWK

inhibition at 1 µM	Compound
≥ 80%	C[C@@H]1CCC[C@H](C)N1CCCN1CCN(CCN2CCCCC2)C1=C(C#N)C#N [Compound 50, {1-[3-(Cis-2,6-dimethylpiperidino)propyl]-3-(2-piperidinoethyl)imidazolidin-2-ylidene}malononitrile Difumarate]
≥ 80%	N#CC(C#N)=C1N(CCCN2CCc3ccccc3C2)CCN1CCN1CCCCC1 [Compound 52, {1-[3-(1,2,3,4-Tetrahydroisoquinolin-2-yl)propyl]-3-(2-piperidinoethyl)imidazolidin-2-ylidene}malononitrile]
≥ 80%	N#CC(C#N)=C1N(CCCN2CCCCC2)CCN1CCN1CCc2ccccc2C1 [Compound 53, {1-[2-(1,2,3,4-Tetrahydroisoquinolin-2-yl)ethyl]-3-(3-piperidinopropyl)imidazolidin-2-ylidene}malononitrile]
≥ 80%	CC1CCCN1CCN1CCN(CCCN2CCCC2)C1=C(C#N)C#N (centres unmarked) [Compound 54, {1-[2-(2-Methylpyrrolidin-1-yl)ethyl]-3-[3-(3-pyrrolidin-1-yl)propyl]imidazolidin-2-ylidene}malononitrile]
≥ 80%	N#CC(C#N)=C1N(CCCNC2CCCCC2)CCN1CCN1CCCCC1 [Compound 62, [1-(3-Cyclohexylaminopropyl)-3-(2-piperidinoethyl)imidazolidin-2-ylidene]malononitrile]
≥ 80%	N#CC(C#N)=C1N(CCCN2CCCCC2)CCN1CCNC1CCCCC1 [Compound 63, [1-(2-Cyclohexylaminoethyl)-3-(3-piperidinopropyl)imidazolidin-2-ylidene]malononitrile Difumarate]
≥ 80%	N#CC(C#N)=C1N(CCCN2CCCCCC2)CCN1CCCN1CCCCCC1 [Compound 66, {1,3-Bis[3-(azepan-1-yl)propyl]imidazolidin-2-ylidene}malononitrile]
≥ 80%	N#CC(C#N)=C1N(CCCN2CC=CCC2)CCN1CCCN1CCCCCC1 [Compound 68, {1-[3-(Azepan-1-yl)propyl]-3-[3-(1,2,3,6-tetrahydropyridin-1-yl)propyl]imidazolidin-2-ylidene}malononitrile]
≥ 80%	N#CC(C#N)=C1N(CCCN2CCCCCC2)CCN1CCCN1CCCC1 [Compound 69, {1-[3-(Azepan-1-yl)propyl]-3-[3-(pyrrolidin-1-yl)propyl]imidazolidin-2-ylidene}malononitrile]
≥ 80%	CC1CC(C)CN(CCCN2CCN(CCCN3CCCCCC3)C2=C(C#N)C#N)C1 (centres unmarked) [Compound 70, {1-[3-(Azepan-1-yl)propyl]-3-[3-(3,5-dimethylpiperidino)propyl]imidazolidin-2-ylidene}malononitrile]
≥ 80%	CN1CCN(CCCN2CCN(CCCN3CCCCC3)C2=C(C#N)C#N)CC1 [Compound 76, {1-[3-(4-Methylpiperazin-1-yl)propyl]-3-(3-piperidinopropyl)imidazolidin-2-ylidene}malononitrile]
≥ 80%	CC1CCCN1CCCN1CCN(CCCN2CCN(C)CC2)C1=C(C#N)C#N (centres unmarked) [Compound 78, {1-[3-(4-Methylpiperazin-1-yl)propyl]-3-[3-(2-methylpyrrolidin-1-yl)propyl]imidazolidin-2-ylidene}malononitrile]
≥ 80%	CC1CCCN(CCCN2CCN(CCCN3CCOCC3)C2=C(C#N)C#N)C1 (centres unmarked) [Compound 80, {1-[3-(3-Methylpiperidino)propyl]-3-(3-morpholinopropyl)imidazolidin-2-ylidene}malononitrile]
≥ 80%	N#CC(C#N)=C1N(CCCN2CCCC2)CCN1CCCN1CCOCC1 [Compound 82, {1-(3-Morpholinopropyl)-3-[3-(pyrrolidin-1-yl)propyl]imidazolidin-2-ylidene}malononitrile]
≥ 80%	N#CC(C#N)=C1N(CCCN2CCCCC2)CCN1CCCN1CCOCC1 [Compound 83, [1-(3-Morpholinopropyl)-3-(3-piperidinopropyl)imidazolidin-2-ylidene]malononitrile]
≥ 80%	CC1CCCN1CCCN1CCN(CCCN2CCOCC2)C1=C(C#N)C#N (centres unmarked) [Compound 85, {1-[3-(2-Methylpyrrolidin-1-yl)propyl]-3-(3-morpholinopropyl)imidazolidin-2-ylidene}malononitrile]

inhibition at 1 µM	Compound
≥ 80%	CC1CCCCN1CCCN1CCN(CCCN2CC=CCC2)C1=C(C#N)C#N (centres unmarked) [Compound 86, {1-[3-(1,2,3,6-Tetrahydropyridin-1-yl)propyl]-3-[3-(2-methylpiperidino)propyl]imidazolidin-2-ylidene}malononitrile]
≥ 80%	CC1CCCN(CCCN2CCN(CCCN3CC=CCC3)C2=C(C#N)C#N)C1 (centres unmarked) [Compound 87, {1-[3-(1,2,3,6-Tetrahydropyridin-1-yl)propyl]-3-[3-(3-methylpiperidino)propyl]imidazolidin-2-ylidene}malononitrile]
≥ 80%	N#CC(C#N)=C1N(CCCN2CC=CCC2)CCN1CCCN1CC=CCC1 [Compound 88, {1,3-bis[3-(1,2,3,6-Tetrahydropyridin-1-yl)propyl]imidazolidin-2-ylidene}malononitrile]
≥ 80%	N#CC(C#N)=C1N(CCCN2CC=CCC2)CCN1CCCN1CCCC1 [Compound 89, {1-[3-(1,2,3,6-Tetrahydropyridin-1-yl)propyl]-3-[3-(pyrrolidin-1-yl)propyl]imidazolidin-2-ylidene}malononitrile]
≥ 80%	N#CC(C#N)=C1N(CCCN2CC=CCC2)CCN1CCCN1CCCCC1 [Compound 90, {1-[3-(1,2,3,6-Tetrahydropyridin-1-yl)propyl]-3-(3-piperidinopropyl)imidazolidin-2-ylidene}malononitrile]
≥ 80%	CC1CC(C)CN(CCCN2CCN(CCCN3CC=CCC3)C2=C(C#N)C#N)C1 (centres unmarked) [Compound 91, {1-[3-(1,2,3,6-Tetrahydropyridin-1-yl)propyl]-3-[3-(3,5-dimethylpiperidino)propyl]imidazolidin-2-ylidene}malononitrile]
≥ 80%	CC1CCCN1CCCN1CCN(CCCN2CC=CCC2)C1=C(C#N)C#N (centres unmarked) [Compound 92, {1-[3-(1,2,3,6-Tetrahydropyridin-1-yl)propyl]-3-[3-(2-methylpyrrolidin-1-yl)propyl]imidazolidin-2-ylidene}malononitrile]
≥ 80%	CC1CCCCN1CCCN1CCN(CCCN2CCCC2)C1=C(C#N)C#N (centres unmarked) [Compound 93, {1-[3-(2-Methylpiperidino)propyl]-3-[3-(pyrrolidin-1-yl)propyl]imidazolidin-2-ylidene}malononitrile]
≥ 80%	N#CC(C#N)=C1N(CCCN2CCCC2)CCN1CCCN1CCCC1 [Compound 94, {1,3-Bis[3-(pyrrolidin-1-yl)propyl]imidazolidin-2-ylidene}malononitrile]
≥ 80%	N#CC(C#N)=C1N(CCCN2CCCCC2)CCN1CCCN1CCCC1 [Compound 95, {1-(3-Piperidinopropyl)-3-[3-(pyrrolidin-1-yl)propyl]imidazolidin-2-ylidene}malononitrile]
≥ 80%	CC1CC(C)CN(CCCN2CCN(CCCN3CCCC3)C2=C(C#N)C#N)C1 (centres unmarked) [Compound 96, {1-[3-(3,5-Dimethylpiperidino)propyl]-3-[3-(pyrrolidin-1-yl)propyl]imidazolidin-2-ylidene}malononitrile]
≥ 80%	CC1CCCN1CCCN1CCN(CCCN2CCCC2)C1=C(C#N)C#N (centres unmarked) [Compound 97, {1-[3-(2-Methylpyrrolidin-1-yl)propyl]-3-[3-(pyrrolidin-1-yl)propyl]imidazolidin-2-ylidene}malononitrile]
≥ 80%	CC1CCCCN1CCCN1CCN(CCCN2CCCCC2)C1=C(C#N)C#N (centres unmarked) [Compound 98, {1-[3-(2-Methylpiperidino)propyl]-3-(3-piperidinopropyl)imidazolidin-2-ylidene}malononitrile]
≥ 80%	CC1CCCN(CCCN2CCN(CCCN3CCCCC3)C2=C(C#N)C#N)C1 (centres unmarked) [Compound 99, {1-[3-(3-Methylpiperidino)propyl]-3-(3-piperidinopropyl)imidazolidin-2-ylidene}malononitrile]
≥ 80%	CC1CCN(CCCN2CCN(CCCN3CCCCC3)C2=C(C#N)C#N)CC1 [Compound 100, {1-[3-(4-Methylpiperidino)propyl]-3-(3-piperidinopropyl)imidazolidin-2-ylidene}malononitrile]
≥ 80%	N#CC(C#N)=C1N(CCCN2CCCCC2)CCN1CCCN1CCC(O)C1 (centres unmarked) [Compound 101, {1-[3-(3-Hydroxypyrrolidin-1-yl)propyl]-3-(3-piperidinopropyl)imidazolidin-2-ylidene}malononitrile]
